Measurements from patent US12527519B2, “Neurostimulation devices and methods” (Cardionomix, Inc., priority 2016, dated 2026).

Test system: normal, non-HF ovine model
Test: Right ventricle vs left ventricle contractility after a change, pressure max(dP/dt) as surrogate, heartbeat-by-heartbeat correlation
Type: in vivo
Conditions: max(dP/dt) as surrogate for contractility, calcium at 5 mL
Source text: The correlation was a heartbeat-by-heartbeat analysis. Pressure measurements, taken by a Millar catheter comprising a MEMS pressure sensor, in units of max(dP/dt) was used as a surrogate for contractility.
The first change, a dobutamine injection, provided a very high contractility increase greater than 500%. The average correlation between right ventricle contractility and left ventricle contractility was very good at 0.91, where 1.00 is a perfect correlation. Accordingly, if a subject is given a dobutamine injection, measuring changes to right ventricle contractility can provide accurate information about changes to left ventricle contractility. The first change was repeated three times.
The second change, calcium injection at 5 mL, provided a contractility increase of about 20%. […] The average correlation between right ventricle contractility and left ventricle contractility using a Millar (MEMS) sensor on a catheter was very good at 0.91. The average correlation between right ventricle contractility and left ventricle contractility using a fluid-filled lumen of a Swan-Ganz catheter in communication with an external pressure sensor was also very good at 0.87. […]

With calcium [Calcium Injection] the “Contractility % Increase” value was roughly 20% and the “Contractility % Increase” value (listed as calcium injection) was “about 20%”.
